Measured values taken from PubChem BioAssay AID330 (DTP/NCI, 2004).
Values joined by “and” are separate entries in the source; they are usually repeats but may differ in a detail not shown here. Identical values can stand only once. Toxic doses and inconclusive results are not listed.

Test system: P388 leukemia ip, CD2F1 mice, survival T/C
Test: NCI In Vivo Anticancer Drug Screen. Data for tumor model P388 Leukemia (intraperitoneal) in CD2F1 (CDF1) mice
Settings: endpoint: median survival time, higher = longer survival
How it was run: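 Mice carrying the transplanted tumor received test compound or vehicle. Survival was recorded in each group, and the value is the treated-group measurement divided by that of the vehicle-treated control group.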

[1] = dose: 100.0 mg/kg/injection, schedule: Q04DX002 (ip), vehicle: saline
[2] = dose: 200.0 mg/kg/injection, schedule: Q04DX002 (ip), vehicle: saline
[3] = dose: 50.0 mg/kg/injection, schedule: Q01DX005 (ip), vehicle: saline with Tween-80
[4] = dose: 100.0 mg/kg/injection, schedule: Q01DX005 (ip), vehicle: saline with Tween-80
[5] = dose: 200.0 mg/kg/injection, schedule: Q01DX005 (ip), vehicle: saline with Tween-80
[6] = dose: 50.0 mg/kg/injection, schedule: Q01DX005 (ip), vehicle: Klucel (hydroxypropylcellulose) (HPC)
[7] = dose: 100.0 mg/kg/injection, schedule: Q01DX005 (ip), vehicle: Klucel (hydroxypropylcellulose) (HPC)
[8] = dose: 100.0 mg/kg/injection, schedule: Q01DX009 (ip), vehicle: saline with Tween-80
[9] = dose: 100.0 mg/kg/injection, schedule: Q04DX003 (ip), vehicle: saline with Tween-80
[10] = dose: 200.0 mg/kg/injection, schedule: Q04DX003 (ip), vehicle: saline with Tween-80
[11] = dose: 400.0 mg/kg/injection, schedule: Q04DX003 (ip), vehicle: saline with Tween-80
[12] = dose: 12.5 mg/kg/injection, schedule: Q01DX009 (ip), vehicle: saline
[13] = dose: 25.0 mg/kg/injection, schedule: Q01DX009 (ip), vehicle: saline
[14] = dose: 200.0 mg/kg/injection, schedule: Q01DX009 (ip), vehicle: saline with Tween-80
[15] = dose: 400.0 mg/kg/injection, schedule: Q01DX009 (ip), vehicle: saline with Tween-80
[16] = dose: 60.0 mg/kg/injection, schedule: Q01DX005 (ip), vehicle: Klucel (hydroxypropylcellulose) (HPC)
[17] = dose: 120.0 mg/kg/injection, schedule: Q01DX005 (ip), vehicle: Klucel (hydroxypropylcellulose) (HPC)
[18] = dose: 240.0 mg/kg/injection, schedule: Q01DX005 (ip), vehicle: Klucel (hydroxypropylcellulose) (HPC)
[19] = dose: 50.0 mg/kg/injection, schedule: Q01DX009 (ip), vehicle: saline with Tween-80
[20] = dose: 100.0 mg/kg/injection, schedule: Q01DX001 (ip), vehicle: Klucel (hydroxypropylcellulose) (HPC)
[21] = dose: 200.0 mg/kg/injection, schedule: Q01DX001 (ip), vehicle: Klucel (hydroxypropylcellulose) (HPC)
[22] = dose: 400.0 mg/kg/injection, schedule: Q01DX001 (ip), vehicle: Klucel (hydroxypropylcellulose) (HPC)

Structure (SMILES): CN1NC1(C)C (stereo unspecified)
- T/C (dose: 50.0 mg/kg/injection, schedule: Q04DX002 (ip), vehicle: saline): 100 % of control
- T/C [1]: 110 % of control
- T/C [2]: 98 % of control

Structure (SMILES): CN1Cc2cc(Cl)ccc2N(C)Cc2cc(Cl)ccc21
- T/C [3]: 101 % of control
- T/C [4]: 90 % of control
- T/C [5]: 92 % of control

Structure (SMILES): CCC1(CC)C(=O)NC(=O)[N]([Sn]([CH3])([CH3])[N]2C(=O)NC(=O)C(CC)(CC)C2=O)C1=O
- T/C [6]: 112 % of control
- T/C [7]: 111 % of control

Structure (SMILES): Nc1cc(N)cc(Cc2ccccc2)c1
- T/C [8]: 100 % of control
- T/C [9]: 100 % of control
- T/C [10]: 109 % of control
- T/C [11]: 95 % of control

Structure (SMILES): Nc1ccc(-c2nnc(-c3ccc(N)cc3)nn2)cc1
- T/C (dose: 100.0 mg/kg/injection, schedule: Q01DX001 (ip), vehicle: saline): 94 % of control
- T/C (dose: 200.0 mg/kg/injection, schedule: Q01DX001 (ip), vehicle: saline): 92 % of control
- T/C (dose: 400.0 mg/kg/injection, schedule: Q01DX001 (ip), vehicle: saline): 95 % of control

Structure (SMILES): CC(O)CN(CCN(CC(C)O)CC(C)O)CC(C)O.[Cl-].[Co+2] (stereo unspecified)
- T/C [12]: 108 % of control and 111 % of control
- T/C [13]: 107 % of control and 110 % of control
- T/C (dose: 50.0 mg/kg/injection, schedule: Q01DX009 (ip), vehicle: saline): 111 % of control and 112 % of control and 119 % of control
- T/C (dose: 100.0 mg/kg/injection, schedule: Q01DX009 (ip), vehicle: saline): 123 % of control and 92 % of control

Structure (SMILES): c1ccc2cc(N3CCOCC3)ccc2c1
- T/C [8]: 116 % of control
- T/C [14]: 119 % of control
- T/C [15]: 116 % of control

Structure (SMILES): O=C(OCc1ccccc1)ON1C(=O)C2C3C=CC(C3)C2C1=O (stereo unspecified)
- T/C [6]: 115 % of control
- T/C [7]: 110 % of control

Structure (SMILES): CN(Cc1ccccc1)CC(CCC1OCCO1)(CCC1OCCO1)c1ccccc1
- T/C (dose: 50.0 mg/kg/injection, schedule: Q01DX009 (ip), vehicle: Klucel (hydroxypropylcellulose) (HPC)): 96 % of control
- T/C (dose: 100.0 mg/kg/injection, schedule: Q01DX009 (ip), vehicle: Klucel (hydroxypropylcellulose) (HPC)): 91 % of control

Structure (SMILES): COc1ccc(C(O)(CCN2CCOCC2)c2ccc3c(c2)OCO3)cc1 (stereo unspecified)
- T/C [6]: 90 % of control
- T/C [7]: 91 % of control

Structure (SMILES): CCOC(=O)c1ccc2c(c1)nc(-c1ccccn1)n2CCc1ccncc1
- T/C (dose: 25.0 mg/kg/injection, schedule: Q01DX005 (ip), vehicle: Klucel (hydroxypropylcellulose) (HPC)): 103 % of control
- T/C [6]: 102 % of control
- T/C [7]: 102 % of control
- T/C (dose: 200.0 mg/kg/injection, schedule: Q01DX005 (ip), vehicle: Klucel (hydroxypropylcellulose) (HPC)): 94 % of control

Structure (SMILES): O=C(O)c1ccc(-c2c3ccc(=O)cc-3oc3cc(O)ccc23)cc1
- T/C [16]: 100 % of control
- T/C [17]: 97 % of control
- T/C [18]: 100 % of control

Structure (SMILES): CC(C)COCC1COC2(OCC(C)(C)C2OC(=O)Nc2ccccc2)O1 (stereo unspecified)
- T/C [16]: 95 % of control
- T/C [17]: 94 % of control
- T/C [18]: 91 % of control

Structure (SMILES): CCN(Cc1cccc(S(=O)(=O)O)c1)c1ccc(C(=C2C=CC(=[N+](CC)Cc3cccc(S(=O)(=O)O)c3)C=C2)c2ccc(S(=O)(=O)O)cc2)cc1
- T/C (dose: 50.0 mg/kg/injection, schedule: Q01DX005 (ip), vehicle: saline): 100 % of control
- T/C (dose: 100.0 mg/kg/injection, schedule: Q01DX005 (ip), vehicle: saline): 99 % of control
- T/C (dose: 200.0 mg/kg/injection, schedule: Q01DX005 (ip), vehicle: saline): 94 % of control

Structure (SMILES): Clc1ccc(NCNC2Nc3ccccc3N2)cc1Cl
- T/C (dose: 60.0 mg/kg/injection, schedule: Q01DX005 (ip), vehicle: saline with Tween-80): 94 % of control
- T/C (dose: 120.0 mg/kg/injection, schedule: Q01DX005 (ip), vehicle: saline with Tween-80): 93 % of control

Structure (SMILES): Cn1c(=O)c2[nH]c(-n3ccc(=N)cc3)nc2n(C)c1=O
- T/C (dose: 100.0 mg/kg/injection, schedule: Q04DX003 (ip), vehicle: saline): 103 % of control
- T/C (dose: 200.0 mg/kg/injection, schedule: Q04DX003 (ip), vehicle: saline): 99 % of control
- T/C (dose: 400.0 mg/kg/injection, schedule: Q04DX003 (ip), vehicle: saline): 99 % of control

Structure (SMILES): Cc1ccc2c(c1)Sc1ccc3ccccc3c1N2
- T/C [8]: 100 % of control
- T/C [9]: 90 % of control
- T/C [14]: 109 % of control
- T/C [10]: 100 % of control
- T/C [15]: 113 % of control
- T/C [11]: 100 % of control

Structure (SMILES): CCCC(O)/C=C/C=C/C=C/C#CC#CCCCO (stereo unspecified)
- T/C (dose: 0.25 mg/kg/injection, schedule: Q01DX005 (ip), vehicle: DMSO): 105 % of control
- T/C (dose: 1.0 mg/kg/injection, schedule: Q01DX005 (ip), vehicle: DMSO): 101 % of control and 110 % of control
- T/C (dose: 2.0 mg/kg/injection, schedule: Q01DX005 (ip), vehicle: DMSO): 124 % of control and 96 % of control
- T/C (dose: 4.0 mg/kg/injection, schedule: Q01DX005 (ip), vehicle: DMSO): 104 % of control
- T/C (dose: 8.0 mg/kg/injection, schedule: Q01DX005 (ip), vehicle: DMSO): 105 % of control

Structure (SMILES): CC(NC(=O)OCc1ccccc1)C(=O)Oc1ccccc1[N+](=O)[O-] (stereo unspecified)
- T/C [19]: 96 % of control
- T/C [8]: 103 % of control
- T/C [14]: 105 % of control

Structure (SMILES): CCOC(=O)c1ccc(NC(=O)N2CC(C)OC(C)C2)cc1 (stereo unspecified)
- T/C [19]: 87 % of control
- T/C [8]: 97 % of control
- T/C [14]: 97 % of control

Structure (SMILES): [Cl][Pt]([Cl])([Cl])[Cl].c1ccc2[nH]cnc2c1.c1ccc2[nH]cnc2c1
- T/C (dose: 1.56 mg/kg/injection, schedule: Q01DX005 (ip), vehicle: saline with Tween-80): 87 % of control
- T/C (dose: 3.12 mg/kg/injection, schedule: Q01DX005 (ip), vehicle: saline with Tween-80): 97 % of control
- T/C (dose: 6.25 mg/kg/injection, schedule: Q01DX005 (ip), vehicle: saline with Tween-80): 94 % of control
- T/C [3]: 99 % of control and 96 % of control

Structure (SMILES): COc1ccc(Cc2ccccc2CO)c2ccccc12
- T/C [20]: 100 % of control
- T/C [21]: 100 % of control
- T/C [22]: 100 % of control

Structure (SMILES): Cc1ccc(S(=O)(=O)Nn2nnnc2N)cc1
- T/C [20]: 102 % of control
- T/C [21]: 100 % of control
- T/C [22]: 100 % of control

Structure (SMILES): CC(C)(Cl)C1OC(C(C)(C)Cl)OC(C(C)(C)Cl)O1 (stereo unspecified)
- T/C [8]: 91 % of control
- T/C [14]: 94 % of control
- T/C [15]: 103 % of control

Structure (SMILES): Cc1ccc(S(=O)(=O)NN=C2[C@H]3CC=CC[C@H]3C(=NNS(=O)(=O)c3ccc(C)cc3)[C@@H]3CC=CC[C@H]23)cc1
- T/C [3]: 90 % of control
- T/C [4]: 87 % of control
- T/C [5]: 103 % of control

Structure (SMILES): O=NNc1ccc(-c2ccc([N+](=O)[O-])cc2)cn1
- T/C (dose: 3.12 mg/kg/injection, schedule: Q01DX009 (ip), vehicle: saline): 170 % of control
- T/C (dose: 6.25 mg/kg/injection, schedule: Q01DX009 (ip), vehicle: saline): 108 % of control

Structure (SMILES): O=C1c2ccccc2C(=O)N1c1ccc(Cl)cc1[N+](=O)[O-]
- T/C [1]: 99 % of control
- T/C [2]: 99 % of control
- T/C (dose: 400.0 mg/kg/injection, schedule: Q04DX002 (ip), vehicle: saline): 97 % of control

Structure (SMILES): CCOC(=O)[n+]1ccc(-c2cc[n+](C(=O)OCC)cc2)cc1
- T/C [12]: 88 % of control
- T/C [13]: 91 % of control
